Results on one compound are retold here after article PMC7577350 (ACS chemical biology, 2013).

Type in all cases: cell-based
One data set has as its system mock-infected MT-4 cells. The data set can be described thus: MTT cytotoxicity assay. (Tetrazolium dyes change colour on reduction, which living cells bring about.)
For data set [1], the system named is HIV-1 (NL4-3 strain). The conditions noted are these: read-out: EC50 (μM) p24 assay, MT-4 cells.
For data set [2], the system named is HIV-1 (NL4-3 strain). Kind of data set: MTT anti-HIV assay. The conditions noted are these: read-out: EC50 (μM) MTT assay; MT-4 cells, HIV-1 NL4-3, Table 3.

Read-outs that look alike come from different tables or passages of the source.

The CC50 is the concentration giving 50% cytotoxicity. A high value points to lower toxicity to the cells. What is called EC50 is the midpoint of the concentration-response curve. As to `Cc1cn([C@H]2C[C@H](N=[N+]=[N-])[C@@H](CO)O2)c(=O)[nH]c1=O` [AZT, reference compound], the CC50 in the data set on mock-infected MT-4 cells was more than 100 µM. The EC50 amounted to 0.02 µM in the data set with HIV-1 (NL4-3 strain) [1] (HIV-1 NL4-3, Table 3); 0.29 µM in the data set with HIV-1 (NL4-3 strain) [1] (HIV-1 NL4-3, Table 4); 0.07 µM in the data set with HIV-1 (NL4-3 strain) [2].
